# Experimental data from patent US12440567B2, “Aqueous antibody formulation stabilized by antioxidants for parenteral administration” (AMGEN INC., priority 2007, dated 2025).
# What was measured:
# Antibody A (IgG1) = test: SEC-HPLC aggregation of Antibody A (IgG1) after UV-B exposure; assay type: physicochemical; conditions: Antibody A 1 mg/mL pH 5.00
# Method: The SEC-HPLC conditions were as follows: a G3000 TOSOH SWXL column was used and the flowrate was set at 0.5 mL/min. […] For both IgG1 and IgG2, the mobile phase was 80 mM sodium phosphate, 300 mM sodium perchlorate, 10% isopropanol, pH 7.2, and each sample was run for 45 minutes.
# For FIG. 5, the anti-streptavidin formulation was prepared having the following characteristics: 1 mg/mL anti-streptavidin mAb (IgG2), 10 mM sodium acetate, 5% sorbitol, and pH 5.00. For FIG. 6, the Antibody A formulation was prepared having the following characteristics: 1 mg/mL Antibody A (IgG1), 10 mM sodium acetate, 9% sucrose, and pH 5.20.
# [1] = Color change of the antioxidant upon light; assay type: physicochemical
# Source text: P-amino benzoic acid (PABA) has a relatively powerful antioxidant effect.
# [2] = PABA: doses as high as 12 grams per day; cited from earlier work
# [3] = test system: Antibody B binding to protein A; test: Binding of Antibody B to protein A after UV-B exposure of the formulation; conditions: 20 mM additive; pH 6.90 phosphate buffer; 0-24 hours UV-B
# Method: For the examples below involving exposure to UVB radiation, each sample was exposed to UVB light (λ≈302 nm) for varying times, using a UVP 8W model UVLMS-38 lamp at 4° C. The formulations were then analyzed using size exclusion chromatography high pressure liquid chromatography (SEC-HPLC). Aggregation (measured via SEC-HPLC analysis) and binding (measured using CM5 gold sensor chips) were measured to determine the effect of the antioxidant on aggregation and bioactivity of the therapeutic protein.
# The binding activity of therapeutic protein to a ligand (e.g. to an antibody or binding partner, or, in cases where the therapeutic was an antibody, binding activity to the specific target antigen or to protein A) was determined as follows. […] The therapeutic protein-binding ligand of interest was injected until the desired immobilization level was achieved (above 5000 response units). Three different therapeutic protein-binding ligands were measured—Antibody A's target antigen, Protein A, and D11 (an antibody that binds to erythropoietin). […] The remaining activated groups were blocked with 1.0 M ethanolamine-HCl, pH 8.5.
# A standard curve was prepared by using native forms of the therapeutic protein of interest. Native forms of the therapeutic protein were diluted in HBS-EP buffer (pH 7.4) to concentrations between 1 and 5 μg/mL, and then injected on the column, prepared as described above to obtain a standard curve. At the end of each sample run, regeneration buffer was used to wash away any bound therapeutic protein in preparation for subsequent injections.
# Various UV-stressed antibody formulations were also diluted in HBS-EP buffer (pH 7.4) to a concentration within the standard curve region, and injected to quantitate the loss of bioactivity to its respective ligand-binding partner.
# Antibody A [4] = test: Discoloration (yellowing) of Antibody A formulations after UV-B exposure; assay type: physicochemical; conditions: 10 mM additive alone; UV-B light 24 hours
# Source text: Discoloration can be assessed visually or by measurement of absorbance at a specific wavelength.
# Proteins may also become yellow in color following exposure to UV light.
# Pyridoxine is another water soluble B-vitamin (B6) which was studied as a possible antioxidant for preventing protein aggregation caused by UV-B exposure.
# EPO = conditions: 10 mM additive, 0.06% H2O2, 24 hours, room temperature
# Method: An exemplary protocol for Met-54 oxidation and peroxide assay is as follows. 0.6% hydrogen peroxide is added to 20 mM sodium phosphate solution containing 0.336 m/mL erythropoietin (EPO). Following 24 hours incubation at room temperature, 1 μg of the enzyme catalase is added to quench the excess hydrogen peroxide. 10 μL of 1M Tris solution pH 8.0 is added to 90 μL of EPO solution followed by addition of 2 μL of a 1 mg/mL trypsin solution. Samples are incubated overnight at room temperature. Peptides are separated using reverse phase HPLC (RP-HPLC). Peptides are identified by mass spectrometry (LC-MS). % Met-54 oxidation is calculated using peak areas determined by integration of UV chromatogram from RP-HPLC
# Antibody A [5] = conditions: 400 mM proline; 1% H2O2, 2 weeks
# Method: Extreme conditions designed to greatly increase free radical generation include exposure to UVA and/or UVB light at 4° C. to 25° C. for 0.5 to 24 hours, or exposure to a 1% solution of hydrogen peroxide at 25° C. for 2 weeks, or exposure to 0.2 mM Fe-EDTA, 0.3% H2O2, and 1 mM ascorbate for 2 hours or longer at 37° C. Samples may alternatively be exposed to light providing an overall illumination of not less than 1.2 million lux hours and an integrated near UV energy of not less than 200 watt hours/square meter.
smiles,measurement,setting,value
"Nc1ccc(C(=O)O)cc1 [PABA, P-amino benzoic acid]",aggregation of Antibody A (SEC-HPLC),"Antibody A (IgG1); 20 mM PABA, UV 1, 2, or 3 hours",able to significantly reduce the amount of aggregation
same,color change upon light,[1],changes to an orange-brown color upon light
same,toxicity in humans,[2],without significant toxicity
CSCC[C@H](N)C(=O)O [methionine],binding of Antibody B to protein A after UV-B exposure,[3],not able to prevent this UV-B induced degradation
same,yellowing of Antibody A formulation,Antibody A [4],significant yellowing
same,amount of Met-54 oxidation,EPO,able to reduce the amount of EPO oxidation
O=C(O)[C@@H]1CCCN1 [proline],protection of Antibody A from UV-B induced degradation (aggregation),"Antibody A (IgG1); 200 mM proline, UV 15 minutes",weak effect
same,prevention of Antibody A aggregation caused by peroxide,Antibody A [5],stronger effect
